Test results reported in patent publication US11814367B2, “Inhibitors of glycogen synthase 1 (GYS1) and methods of use thereof” (Maze Therapeutics, Inc., priority 2021, dated 2023).
pIC50: −log10 of the molar value.

Assays:
[1] = tested on: hGYS1 enzyme / glycogen synthesis in HeLa cells; assay: GYS1 cell based assay (glycogen synthesis, Glucose-glo); parameters: species or system human; settings: 24 h incubation, 20 mM glucose, geometric mean of at least 2 runs
Method in brief: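 HeLa cells starved 24 h in medium containing only 1× Glutamax were plated onto compound in medium with 20 mM glucose (1% DMSO final) for 24 h, 37 °C, 5% CO2. Acid lysates were Tris-quenched, glucoamylase-digested (pH 5.3, 1 h, 37 °C) and read by Glucose-glo luminescence. IC50 came from Hill fits, as geometric mean of ≥2 runs.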

[2] = biological target: hGYS2 enzyme (recombinant hGYS2/GN1 protein) (Homo sapiens (Human), UniProt P54840); assay: GYS2 coupled enzyme assay (PK/LDH); assay type: biochemical; settings: geometric mean of at least 2 assay runs on separate days, read-out: Avg_IC50
Chain of hGYS2 enzyme (recombinant hGYS2/GN1 protein) (P54840 whole entry): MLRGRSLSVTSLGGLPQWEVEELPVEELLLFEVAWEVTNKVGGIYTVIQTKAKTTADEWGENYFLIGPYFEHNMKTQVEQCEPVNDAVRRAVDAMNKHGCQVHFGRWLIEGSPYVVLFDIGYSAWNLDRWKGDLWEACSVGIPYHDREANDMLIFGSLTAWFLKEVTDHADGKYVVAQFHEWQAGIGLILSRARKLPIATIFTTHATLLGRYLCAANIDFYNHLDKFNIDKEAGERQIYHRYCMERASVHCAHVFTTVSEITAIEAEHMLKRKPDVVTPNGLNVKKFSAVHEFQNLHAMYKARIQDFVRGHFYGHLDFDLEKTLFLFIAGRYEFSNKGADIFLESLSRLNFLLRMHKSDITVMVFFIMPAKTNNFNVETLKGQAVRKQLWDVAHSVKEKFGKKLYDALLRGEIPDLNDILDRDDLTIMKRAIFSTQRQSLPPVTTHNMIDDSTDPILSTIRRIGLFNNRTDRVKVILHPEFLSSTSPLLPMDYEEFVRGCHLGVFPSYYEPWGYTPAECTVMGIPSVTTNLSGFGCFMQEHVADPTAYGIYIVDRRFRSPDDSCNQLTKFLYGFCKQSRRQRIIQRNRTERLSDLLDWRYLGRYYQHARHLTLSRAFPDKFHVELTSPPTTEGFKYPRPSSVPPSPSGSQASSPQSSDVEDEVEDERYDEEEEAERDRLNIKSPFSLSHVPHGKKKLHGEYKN
Chain of hGYS2 enzyme (recombinant hGYS2/GN1 protein) (P46976 whole entry partner): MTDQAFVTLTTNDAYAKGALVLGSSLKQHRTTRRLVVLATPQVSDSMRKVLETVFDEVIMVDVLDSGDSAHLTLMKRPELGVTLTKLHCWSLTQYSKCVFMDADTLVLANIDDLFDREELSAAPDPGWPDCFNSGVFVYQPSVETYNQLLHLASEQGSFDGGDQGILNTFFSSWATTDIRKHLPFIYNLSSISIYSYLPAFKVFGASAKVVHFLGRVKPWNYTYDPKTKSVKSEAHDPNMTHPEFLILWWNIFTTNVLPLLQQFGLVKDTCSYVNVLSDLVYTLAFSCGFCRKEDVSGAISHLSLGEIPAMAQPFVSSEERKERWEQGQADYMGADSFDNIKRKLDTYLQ
Method in brief: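 Recombinant hGYS2/GN1 (200 nM) with 2 mM UDP-glucose, 0.2% rabbit liver glycogen, 2 mM glucose-6-phosphate; UDP coupled via PK/LDH (2 mM PEP, 0.6 mM NADH). Buffer 50 mM Tris pH 7.5, 2 mM MgCl2, 100 mM KCl, 2.5% DMSO. A340 slope over 10 min; IC50 from Hill fit of duplicates.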

[3] = biological target: hGYS1 enzyme (recombinant hGYS1/GN1 protein) (Homo sapiens (Human), UniProt P13807); assay: GYS1 coupled enzyme assay (PK/LDH); assay type: biochemical; settings: hGYS1/GN1 50 nM, UDP-Glucose 0.8 mM, G6P 1 mM; geometric mean of at least 2 runs
Chain of hGYS1 enzyme (recombinant hGYS1/GN1 protein) (P13807 whole entry): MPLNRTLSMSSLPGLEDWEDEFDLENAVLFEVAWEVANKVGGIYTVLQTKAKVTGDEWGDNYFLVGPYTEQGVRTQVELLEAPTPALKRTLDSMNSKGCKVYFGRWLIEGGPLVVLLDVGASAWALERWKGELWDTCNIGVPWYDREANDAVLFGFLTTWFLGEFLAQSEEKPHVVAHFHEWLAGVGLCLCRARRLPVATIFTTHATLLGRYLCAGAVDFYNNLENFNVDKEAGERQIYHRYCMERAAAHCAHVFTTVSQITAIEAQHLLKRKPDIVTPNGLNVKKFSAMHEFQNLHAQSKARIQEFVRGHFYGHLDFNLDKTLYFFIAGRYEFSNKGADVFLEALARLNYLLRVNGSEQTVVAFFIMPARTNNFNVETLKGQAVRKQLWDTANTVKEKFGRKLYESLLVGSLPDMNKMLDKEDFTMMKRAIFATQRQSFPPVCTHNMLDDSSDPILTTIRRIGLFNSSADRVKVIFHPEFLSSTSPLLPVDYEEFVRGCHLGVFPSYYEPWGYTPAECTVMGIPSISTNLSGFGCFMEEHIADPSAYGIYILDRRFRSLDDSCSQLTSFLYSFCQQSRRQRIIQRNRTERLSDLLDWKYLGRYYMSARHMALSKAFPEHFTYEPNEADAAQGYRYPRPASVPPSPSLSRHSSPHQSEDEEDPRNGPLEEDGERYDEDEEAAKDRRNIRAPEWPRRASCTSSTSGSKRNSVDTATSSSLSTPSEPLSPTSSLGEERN
Chain of hGYS1 enzyme (recombinant hGYS1/GN1 protein) (P46976 whole entry partner): as the sequence (P46976 whole entry partner) above

`COCCN1CCN(C(=O)NCC(=O)N2C[C@H](F)C[C@H]2C(=O)N[C@@H](c2ccccc2)c2ccc(C3CC3)c(F)c2)CC1` [Compound 488, N-{2-[(2S,4R)-2-{[(S)-(4-cyclopropyl-3-fluorophenyl)(phenyl)methyl]carbamoyl}-4-fluoropyrrolidin-1-yl]-2-oxoethyl}-4-(2-methoxyethyl) piperazine-1-carboxamide] was tested, and the pIC50 ([1]; Homo sapiens, HeLa, 24 h) was 6.06, the pIC50 [2] was under 4.00 and the pIC50 [3] was 7.51.
`CC1(c2ccc([C@@H](NC(=O)[C@@H]3C[C@@H](F)CN3C(=O)CN3CCNCC3=O)c3ccccc3)cc2F)CC1` [Compound 562, (2S,4R)-4-fluoro-N-[(S)-[3-fluoro-4-(1-methylcyclopropyl)phenyl](phenyl)methyl]-1-[2-(2-oxopiperazin-1-yl)acetyl]pyrrolidine-2-carboxamide] was tested, and the pIC50 ([1]; Homo sapiens, HeLa, 24 h) was 5.15, the pIC50 [2] was under 4.00 and the pIC50 [3] was 6.16.
In the case of `CC(C)c1ccc([C@@H](NC(=O)[C@@H]2C[C@@H](F)CN2C(=O)Cn2ccc(=O)[nH]c2=O)c2ccccc2)nc1F` [Compound 785, (2S,4R)-1-[2-(2,4-dioxo-1,2,3,4-tetrahydropyrimidin-1-yl)acetyl]-4-fluoro-N-[(S)-[6-fluoro-5-(propan-2-yl)pyridin-2-yl](phenyl)methyl] pyrrolidine-2-carboxamide], the pIC50 ([1]; Homo sapiens, HeLa, 24 h) was 6.89, the pIC50 [2] was under 4.00 and the pIC50 [3] was 8.22.
Molecule `CC(C)c1ccc([C@@H](NC(=O)[C@@H]2C[C@@H](F)CN2C(=O)Cc2ccnnc2)c2ccccc2)cc1F` [Compound 342, (2S,4R)-4-fluoro-N-[(S)-[3-fluoro-4-(propan-2-yl)phenyl](phenyl)methyl]-1-[2-(pyridazin-4-yl)acetyl]pyrrolidine-2-carboxamide] has a pIC50 ([1]; Homo sapiens, HeLa, 24 h) of 6.43, a pIC50 [2] of under 4.00 and a pIC50 [3] of 7.47.
With `CC(C)c1ccc([C@@H](NC(=O)[C@@H]2C[C@@H](F)CN2C(=O)CNC(N)=O)c2ccccc2)nc1F` [Compound 396, (2S,4R)-1-[2-(carbamoylamino)acetyl]-4-fluoro-N-[(S)-[6-fluoro-5-(propan-2-yl)pyridin-2-yl](phenyl)methyl] pyrrolidine-2-carboxamide] the pIC50 ([1]; Homo sapiens, HeLa, 24 h) was 6.48, the pIC50 [2] was under 4.00 and the pIC50 [3] was 7.89.
With `Cc1nc(C(NC(=O)[C@@H]2C[C@@H](F)CN2C(=O)Cc2nnc(C(F)F)o2)c2ccccc2)ccc1C(C)C` (single isomer, unassigned) [Compound 609, (2S,4R)-1-{2-[5-(difluoromethyl)-1,3,4-oxadiazol-2-yl]acetyl}-4-fluoro-N-[(S) or (R)-[6-methyl-5-(propan-2-yl)pyridin-2-yl](phenyl)methyl] pyrrolidine-2-carboxamide] the pIC50 ([1]; Homo sapiens, HeLa, 24 h) was 5.78, the pIC50 [2] was under 4.00 and the pIC50 [3] was 6.65.
With `CC(C(=O)N1C[C@H](F)C[C@H]1C(=O)N[C@@H](c1ccccc1)c1ccc(C2(C)CC2)c(F)c1)n1cnc2ccccc21` (single isomer, unassigned) [Compound 574, (2S,4R)-1-[(2S) or 2R)-2-(1H-1,3-benzodiazol-1-yl)propanoyl]-4-fluoro-N-[(S)-[3-fluoro-4-(1-methylcyclopropyl)phenyl](phenyl) methyl]pyrrolidine-2-carboxamide] the pIC50 [1] was 6.70, the pIC50 [2] was under 4.00 and the pIC50 [3] was 7.66.
Molecule `O=C(N[C@@H](c1ccccc1)c1ccc(C2CC(F)(F)C2)cn1)[C@@H]1C[C@@H](F)CN1C(=O)Cc1ncco1` [Compound 539, (2S,4R)-N-[(S)-[5-(3,3-difluorocyclobutyl)pyridin-2-yl] (phenyl)methyl]-4-fluoro-1-[2-(1,3-oxazol-2-yl)acetyl] pyrrolidine-2-carboxamide] has a pIC50 ([1]; Homo sapiens, HeLa, 24 h) of 6.02, a pIC50 [2] of under 4.00 and a pIC50 [3] of 7.17.
`CC(C)c1ccc([C@@H](NC(=O)[C@@H]2C[C@@H](F)CN2C(=O)CCc2n[nH]c(=O)[nH]2)c2ccccc2)nc1` [Compound 287, (2S,4R)-4-fluoro-1-[3-(5-oxo-4,5-dihydro-1H-1,2,4-triazol-3-yl)propanoyl]-N-[(S)-phenyl[5-(propan-2-yl)pyridin-2-yl]methyl]pyrrolidine-2-carboxamide] gave a pIC50 ([1]; Homo sapiens, HeLa, 24 h) of 4.93, a pIC50 [2] of under 4.00 and a pIC50 [3] of 6.91.
